This is an account of results in ChEMBL document CHEMBL3399993, “Design and synthesis of novel quinoline-aminopiperidine hybrid analogues as Mycobacterium tuberculosis DNA gyraseB inhibitors” (Bioorg Med Chem, 2015).

Series [1] is filed under the species Danio rerio. As to the kind of experiment: Cardiotoxic inhibition of ERG channel in Zebrafish assessed as change in heart rate of atria at 20 uM after 4 hrs. The class given is organism-based. To be noted: in vivo.
The species named for series [2] is Danio rerio. The series can be described thus: Cardiotoxic inhibition of ERG channel in Zebrafish assessed as change in heart rate of ventricles at 20 uM after 4 hrs. The class given is organism-based. To be noted: in vivo.
The species named for series [3] is Danio rerio. The series can be described thus: Cardiotoxic inhibition of ERG channel in Zebrafish assessed as change in atrio ventricular beats ratio at 20 uM after 4 hrs. The class given is organism-based, Cardiac ventricle. To be noted: in vivo.
Series [4] has as its target DNA gyrase subunit A/DNA gyrase subunit B (Mycobacterium tuberculosis (strain ATCC 25618 / H37Rv), UniProt P9WG45+P9WG47). The series can be described thus: Inhibition of Mycobacterium tuberculosis GyrA/GyrB using relaxed pBR322 substrate incubated for 30 mins by ethidium bromide staining and electrophoresis based DNA supercoiling assay.
Series [5] is described as follows: Cytotoxicity against mouse RAW264.7 cells assessed as inhibition of cell growth at 50 uM after 48 hrs by MTT assay. The class given is cell-based. Particulars: read-out: GI. For orientation: Formazan colour is commonly taken as a measure of viable cells.
For series [6], the system named is Mycobacterium tuberculosis. As to the kind of experiment: Antimycobacterial activity against Mycobacterium tuberculosis H37Rv ATCC 27294 incubated for 7 days by microplate alamar blue assay method. The class given is functional. Particulars: H37Rv ATCC 27294, 168 h.
The species entered for series [7] is Danio rerio. The series can be described thus: Cardiotoxic inhibition of ERG channel in Zebrafish assessed as change in heart rate of atria at 1 uM to 30 uM after 4 hrs. The class given is organism-based. Particulars: in vivo.
For series [8], the species on record is Danio rerio. The series can be described thus: Cardiotoxic inhibition of ERG channel in Zebrafish assessed as change in atrio ventricular beats ratio at 1 uM to 30 uM after 4 hrs. Particulars: in vivo. The class given is organism-based, Cardiac ventricle.
Series [9] concerns the target DNA gyrase subunit B (Mycobacterium smegmatis, UniProt P0C559). As to the kind of experiment: Inhibition of Mycobacterium smegmatis GyrB ATPase activity expressed in Escherichia coli BL21 (DE3) pLysS cells after 100 mins by inorganic phosphate release detection based malachite green reagent assay. Also on record: species or system Mycolicibacterium smegmatis.
For series [10], the species on record is Danio rerio. The series can be described thus: Cardiotoxic inhibition of ERG channel in Zebrafish assessed as change in heart rate of ventricles at 1 uM to 30 uM after 4 hrs. The class given is organism-based. To be noted: in vivo.
Series [11] addresses DNA gyrase subunit B (Staphylococcus aureus) (UniProt P0A0K8). As to the kind of experiment: Inhibition of Staphylococcus aureus GyrB at 100 uM.
In series [12] the target is DNA gyrase subunit B (Escherichia coli) (UniProt P0AES6). As to the kind of experiment: Inhibition of Escherichia coli GyrB at 100 uM.
For series [13], the target named is DNA gyrase subunit B (Mycobacterium smegmatis) (UniProt P0C559). The series can be described thus: Binding affinity to Mycobacterium smegmatis GyrB assessed as increase in protein-compound complex stability by measuring right side positive shift of melting temperature by SYPRO-orange dye based differential scanning fluorimetry. Particulars: Mycolicibacterium smegmatis.

The species named for series [14] is Danio rerio. The series can be described thus: Cardiotoxic inhibition of ERG channel in Zebrafish assessed as change in heart rate of ventricles at 1 uM to 10 uM after 4 hrs. The class given is organism-based. Particulars: in vivo.
Series [15] is filed under the species Danio rerio. The series can be described thus: Cardiotoxic inhibition of ERG channel in Zebrafish assessed as change in heart rate of atria at 1 uM to 10 uM after 4 hrs. The class given is organism-based. To be noted: in vivo.
The species entered for series [16] is Danio rerio. The series can be described thus: Cardiotoxic inhibition of ERG channel in Zebrafish assessed as change in atrio ventricular beats ratio at 1 to 10 uM after 4 hrs. To be noted: in vivo. The class given is organism-based, Cardiac ventricle.
Series [17] is filed under the species Danio rerio. The series can be described thus: Cardiotoxic inhibition of ERG channel in Zebrafish assessed as change in heart rate of atria at 30 uM after 4 hrs. Particulars: in vivo. The class given is organism-based.
For series [18], the species on record is Danio rerio. The series can be described thus: Cardiotoxic inhibition of ERG channel in Zebrafish assessed as change in atrio ventricular beats ratio at 30 uM after 4 hrs. The class given is organism-based, Cardiac ventricle. Particulars: in vivo.
The species entered for series [19] is Danio rerio. As to the kind of experiment: Cardiotoxic inhibition of ERG channel in Zebrafish assessed as change in heart rate of ventricles at 30 uM after 4 hrs. The class given is organism-based. Particulars: in vivo.

Values after ≈ are worked out from the molar mass of the structure shown. Active and inactive are the calls of the source. The rule behind the calls is not given here.

DNA gyrase subunit B, sequence (P0C559 whole entry): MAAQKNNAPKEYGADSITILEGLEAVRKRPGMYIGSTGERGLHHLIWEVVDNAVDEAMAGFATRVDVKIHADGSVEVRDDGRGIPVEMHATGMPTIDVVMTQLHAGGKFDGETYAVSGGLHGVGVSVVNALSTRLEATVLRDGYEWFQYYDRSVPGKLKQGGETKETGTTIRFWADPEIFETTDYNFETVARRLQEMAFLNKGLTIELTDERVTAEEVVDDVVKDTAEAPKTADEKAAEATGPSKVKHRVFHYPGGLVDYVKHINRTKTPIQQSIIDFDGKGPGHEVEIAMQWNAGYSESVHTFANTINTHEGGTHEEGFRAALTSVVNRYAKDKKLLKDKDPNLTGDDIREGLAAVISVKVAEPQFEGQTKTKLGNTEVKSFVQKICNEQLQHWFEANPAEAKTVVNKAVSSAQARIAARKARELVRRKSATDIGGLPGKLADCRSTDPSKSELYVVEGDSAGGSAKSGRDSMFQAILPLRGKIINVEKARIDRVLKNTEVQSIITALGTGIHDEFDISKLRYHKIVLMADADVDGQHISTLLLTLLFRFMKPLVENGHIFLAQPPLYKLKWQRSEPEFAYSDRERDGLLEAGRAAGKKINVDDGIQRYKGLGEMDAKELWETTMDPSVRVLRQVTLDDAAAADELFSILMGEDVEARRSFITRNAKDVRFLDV
DNA gyrase subunit A/DNA gyrase subunit B, sequence (P9WG45 whole entry): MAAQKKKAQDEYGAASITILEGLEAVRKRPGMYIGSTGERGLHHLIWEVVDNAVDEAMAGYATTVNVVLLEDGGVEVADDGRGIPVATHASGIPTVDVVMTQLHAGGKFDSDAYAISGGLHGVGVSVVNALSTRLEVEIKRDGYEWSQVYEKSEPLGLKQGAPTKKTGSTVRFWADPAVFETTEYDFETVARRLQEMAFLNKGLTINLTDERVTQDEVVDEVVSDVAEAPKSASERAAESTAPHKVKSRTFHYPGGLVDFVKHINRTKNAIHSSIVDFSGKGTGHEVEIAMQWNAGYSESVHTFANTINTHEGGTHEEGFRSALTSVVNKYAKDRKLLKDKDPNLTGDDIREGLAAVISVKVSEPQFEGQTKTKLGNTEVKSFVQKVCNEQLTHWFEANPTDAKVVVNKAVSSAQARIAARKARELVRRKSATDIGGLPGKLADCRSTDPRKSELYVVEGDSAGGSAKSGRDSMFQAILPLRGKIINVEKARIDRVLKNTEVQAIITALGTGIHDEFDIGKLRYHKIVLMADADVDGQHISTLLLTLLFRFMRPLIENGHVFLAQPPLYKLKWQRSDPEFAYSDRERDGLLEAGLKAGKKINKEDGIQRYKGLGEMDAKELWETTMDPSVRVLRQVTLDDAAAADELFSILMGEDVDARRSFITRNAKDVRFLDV
DNA gyrase subunit A/DNA gyrase subunit B, sequence (P9WG47 whole entry): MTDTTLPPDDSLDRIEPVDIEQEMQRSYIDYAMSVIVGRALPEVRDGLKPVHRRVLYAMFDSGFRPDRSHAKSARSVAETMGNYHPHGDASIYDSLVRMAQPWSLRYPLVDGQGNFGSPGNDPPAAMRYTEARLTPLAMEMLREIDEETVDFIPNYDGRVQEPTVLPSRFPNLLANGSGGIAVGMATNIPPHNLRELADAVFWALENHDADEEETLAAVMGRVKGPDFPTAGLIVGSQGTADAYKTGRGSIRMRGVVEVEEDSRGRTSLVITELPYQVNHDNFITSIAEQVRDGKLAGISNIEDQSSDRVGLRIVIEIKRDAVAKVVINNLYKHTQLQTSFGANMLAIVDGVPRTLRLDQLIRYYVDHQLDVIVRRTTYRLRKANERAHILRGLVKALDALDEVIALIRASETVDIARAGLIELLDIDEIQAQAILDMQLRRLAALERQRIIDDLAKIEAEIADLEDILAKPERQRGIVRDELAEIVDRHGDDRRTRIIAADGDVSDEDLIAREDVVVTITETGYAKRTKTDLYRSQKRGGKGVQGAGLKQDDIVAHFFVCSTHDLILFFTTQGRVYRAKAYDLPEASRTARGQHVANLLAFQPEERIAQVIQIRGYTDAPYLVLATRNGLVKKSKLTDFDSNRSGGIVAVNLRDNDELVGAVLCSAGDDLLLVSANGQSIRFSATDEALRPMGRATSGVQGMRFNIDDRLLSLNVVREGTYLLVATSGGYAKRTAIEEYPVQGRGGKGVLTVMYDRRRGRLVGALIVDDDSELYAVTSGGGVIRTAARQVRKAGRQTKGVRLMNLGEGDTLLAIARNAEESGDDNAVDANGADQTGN
DNA gyrase subunit B (Mycobacterium smegmatis), sequence (P0C559 2-675 limits assumed): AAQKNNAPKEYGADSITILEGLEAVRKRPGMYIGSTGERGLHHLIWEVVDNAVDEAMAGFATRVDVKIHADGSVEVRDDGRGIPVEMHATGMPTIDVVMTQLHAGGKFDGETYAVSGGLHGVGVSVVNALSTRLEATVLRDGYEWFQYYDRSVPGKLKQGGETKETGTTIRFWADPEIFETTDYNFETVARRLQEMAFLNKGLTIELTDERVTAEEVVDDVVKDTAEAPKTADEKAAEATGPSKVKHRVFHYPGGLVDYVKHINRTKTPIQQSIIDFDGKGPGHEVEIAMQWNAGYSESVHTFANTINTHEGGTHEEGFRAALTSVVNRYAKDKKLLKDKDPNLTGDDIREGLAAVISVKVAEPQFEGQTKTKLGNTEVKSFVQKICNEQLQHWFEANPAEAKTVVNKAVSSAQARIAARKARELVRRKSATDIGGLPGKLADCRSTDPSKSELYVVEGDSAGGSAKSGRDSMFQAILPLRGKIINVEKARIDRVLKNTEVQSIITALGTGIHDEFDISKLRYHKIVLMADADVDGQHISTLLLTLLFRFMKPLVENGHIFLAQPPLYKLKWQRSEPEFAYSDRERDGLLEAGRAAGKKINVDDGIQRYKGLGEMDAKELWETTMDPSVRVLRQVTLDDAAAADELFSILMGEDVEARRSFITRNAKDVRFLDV
DNA gyrase subunit B (Staphylococcus aureus), sequence (P0A0K8 2-644 limits assumed): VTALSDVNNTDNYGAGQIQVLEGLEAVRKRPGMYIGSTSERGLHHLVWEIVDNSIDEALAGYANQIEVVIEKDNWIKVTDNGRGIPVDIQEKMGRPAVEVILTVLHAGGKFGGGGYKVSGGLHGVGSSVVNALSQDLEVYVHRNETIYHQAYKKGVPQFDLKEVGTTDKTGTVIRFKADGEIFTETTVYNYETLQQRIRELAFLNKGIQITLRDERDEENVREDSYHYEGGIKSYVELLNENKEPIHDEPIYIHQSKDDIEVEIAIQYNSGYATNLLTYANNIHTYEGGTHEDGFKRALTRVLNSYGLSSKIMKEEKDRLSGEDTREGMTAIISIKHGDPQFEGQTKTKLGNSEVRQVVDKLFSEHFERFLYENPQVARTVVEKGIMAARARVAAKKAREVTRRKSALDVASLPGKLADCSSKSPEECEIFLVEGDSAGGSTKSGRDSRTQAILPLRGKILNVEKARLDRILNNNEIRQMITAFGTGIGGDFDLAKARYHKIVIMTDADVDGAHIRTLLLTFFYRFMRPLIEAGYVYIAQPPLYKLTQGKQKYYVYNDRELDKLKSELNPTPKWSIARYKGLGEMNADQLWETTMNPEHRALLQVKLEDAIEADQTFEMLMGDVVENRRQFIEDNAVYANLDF

For `CC(C)(C)c1ccc(C(O)CCCN2CCC(C(O)(c3ccccc3)c3ccccc3)CC2)cc1` (stereo not given) [TERFENADINE], the Activity result in [1], in series [2] and in series [3] was “Toxic” throughout.

The IC50 is the point on the concentration scale where inhibition reaches its midpoint. The low end stands for greater potency in that assay, the high end for weaker potency in that assay. As usually defined, the MIC is the lowest concentration found to suppress growth. Low readings indicate inhibition by little substance, high ones a need for much substance. As usually defined, the ΔTm is the shift of the melting midpoint relative to a reference. `COc1ccc2nc(C)cc(N3CCC(NC(=S)Nc4ccc(Cl)cc4)CC3)c2c1`: the IC50 in [4] was 0.62 µM; in series [9], 0.95 µM. Moreover, the inhibition at 48 h, 50 µM in series [5] was found to be 29.7%. This compound registered an MIC in [6] of 3.47 µM (≈ 1.53 µg/mL). The Activity result in [7], in series [8] and in [10] was “Non-toxic” throughout. For the same compound, the inhibition entry in [11] and in series [12] was “inactive” each time. In addition, the thermal shift (ΔTm) in series [13] amounted to 3.1 °C.

In the case of `COc1ccc2nc(C)cc(N3CCC(NC(=O)Nc4ccccc4)CC3)c2c1`, the 50% inhibitory concentration (IC50) in series [4] stood at 9.32 µM; in [9], 12.2 µM. Also, the inhibition at 48 h, 50 µM in series [5] came to 66.5%. The compound also gave a minimum inhibitory concentration (MIC) in [6] of 32 µM (≈ 12.5 µg/mL).

`COc1ccc2nc(C)cc(N3CCC(NC(=O)Nc4ccc(Cl)cc4)CC3)c2c1`: the IC50 in series [4] was found to be 14.3 µM; in [9] it was 16.2 µM. Further, the inhibition at 48 h, 50 µM in [5] came out at 42.4%. The MIC in series [6] worked out at 17.4 µM (≈ 7.37 µg/mL).

For the compound `COc1ccc2nc(C)cc(N3CCC(NC(=S)Nc4ccc(C)cc4)CC3)c2c1`, the Activity entry in [14] was “Non-toxic”; in [15], “Non-toxic”; in series [16] it was “Non-toxic”; in [17] it was “Toxic”; in series [18], “Toxic”; in [19], “Toxic”. Further, the values for the IC50 in series [4] and in [9] were 7.94 µM and 11.1 µM, respectively. In addition, the inhibition at 48 h, 50 µM in [5] stood at 44.9%. The compound also came in with an MIC in series [6] of 7.28 µM (≈ 3.06 µg/mL).

Regarding `Cc1cc(N2CCC(NC(=O)Nc3ccc([N+](=O)[O-])cc3)CC2)c2cc(F)ccc2n1`, the IC50 turned out to be 2.14 µM in series [4] and 6.83 µM in [9]. Further, in [5], the inhibition at 48 h, 50 µM is 47.9%. The minimal inhibitory concentration (MIC) in [6] was found to be 9.52 µM (≈ 4.03 µg/mL).

Turning to `COc1ccc(NC(=S)NC2CCN(c3cc(C)nc4ccc(C(F)(F)F)cc34)CC2)cc1`, the IC50 is 34.5 µM in series [4] and 32.6 µM in [9]. Also, the inhibition at 48 h, 50 µM in series [5] is 41.8%. This compound also returned an MIC in series [6] of 66.9 µM (≈ 31.7 µg/mL).

Consider `Cc1cc(N2CCC(NC(=S)Nc3ccc(F)cc3)CC2)c2cc(C(F)(F)F)ccc2n1`, for which the IC50 in [4] was 22.8 µM; in [9] it was 48.5 µM. Further, in series [5], the inhibition at 48 h, 50 µM was found to be 50.7%. Moreover, in [6], 66.5 µM (≈ 30.8 µg/mL) was the least that counted as inhibitory (MIC).

`Cc1cc(N2CCC(NC(=O)Nc3ccc(F)cc3)CC2)c2ccccc2n1`: the results for the IC50 in [4] and in [9] were 19.7 µM and 34.9 µM, respectively. For the same compound, the inhibition at 48 h, 50 µM in [5] was determined as 49.4%. This compound registered a minimum inhibitory concentration (MIC) in [6] of 34.1 µM (≈ 12.9 µg/mL).

For `Cc1cc(N2CCC(NC(=S)Nc3ccc(F)cc3)CC2)c2ccccc2n1`, the IC50 is 16.7 µM in series [4] and 29.8 µM in series [9]. Besides, the inhibition at 48 h, 50 µM in series [5] turned out to be 32.9%. This compound also returned an MIC in series [6] of 36.1 µM (≈ 14.3 µg/mL).

In the case of `Cc1ccc(NC(=S)NC2CCN(c3cc(C)nc4ccccc34)CC2)cc1`, the IC50 in [4] is 2.66 µM; in series [9] it was 7.26 µM. The inhibition at 48 h, 50 µM in [5] was 21.6%. In [6], the MIC is 15.7 µM (≈ 6.12 µg/mL).
